Values of other authors in patent US20070072232A1, “Identification of genetic components of drug response” (Variagenics, Inc. a Delaware corporation, priority 2000, published 2007).
Counter-ions that a name gives are not always drawn.

Tested on: Alzheimer's disease
Details: per PDR

Nc1c2c(nc3ccccc13)CCCC2 [Cognex, tacrine hydrochloride]
patients showing no change or minimal worsening of their disease (patients receiving Cognex for Alzheimer's disease): about 45%
Alzheimer's patients minimally improved (patients receiving Cognex): About 58%
patients much improved (patients receiving Cognex): about 2%
